From the kinase profiling compilation of Christmann-Franck et al. (2016)

Columns and labels:
Assay in all cases: KINOMEscan competition binding
Settings in all cases: compound 10.0 µM
PTK6 (human) = PTK6 (human) (UniProt Q13882)
EPHA5 (human) = EPHA5 (human) (UniProt P54756)
VRK2 (human) = VRK2 (human) (UniProt Q86Y07)
DAPK1 (human) = DAPK1 (human) (UniProt P53355)
NEK7 (human) = NEK7 (human) (UniProt Q8TDX7)
MELK (human) = MELK (human) (UniProt Q14680)
LATS1 (human) = LATS1 (human) (UniProt O95835)
CAMKK2 (human) = CAMKK2 (human) (UniProt Q96RR4)
ITK (human) = ITK (human) (UniProt Q08881)
PIK3C2B (human) = PIK3C2B (human) (UniProt O00750)
Sequence of PIK3C2B (human) (O00750 whole entry, looked up): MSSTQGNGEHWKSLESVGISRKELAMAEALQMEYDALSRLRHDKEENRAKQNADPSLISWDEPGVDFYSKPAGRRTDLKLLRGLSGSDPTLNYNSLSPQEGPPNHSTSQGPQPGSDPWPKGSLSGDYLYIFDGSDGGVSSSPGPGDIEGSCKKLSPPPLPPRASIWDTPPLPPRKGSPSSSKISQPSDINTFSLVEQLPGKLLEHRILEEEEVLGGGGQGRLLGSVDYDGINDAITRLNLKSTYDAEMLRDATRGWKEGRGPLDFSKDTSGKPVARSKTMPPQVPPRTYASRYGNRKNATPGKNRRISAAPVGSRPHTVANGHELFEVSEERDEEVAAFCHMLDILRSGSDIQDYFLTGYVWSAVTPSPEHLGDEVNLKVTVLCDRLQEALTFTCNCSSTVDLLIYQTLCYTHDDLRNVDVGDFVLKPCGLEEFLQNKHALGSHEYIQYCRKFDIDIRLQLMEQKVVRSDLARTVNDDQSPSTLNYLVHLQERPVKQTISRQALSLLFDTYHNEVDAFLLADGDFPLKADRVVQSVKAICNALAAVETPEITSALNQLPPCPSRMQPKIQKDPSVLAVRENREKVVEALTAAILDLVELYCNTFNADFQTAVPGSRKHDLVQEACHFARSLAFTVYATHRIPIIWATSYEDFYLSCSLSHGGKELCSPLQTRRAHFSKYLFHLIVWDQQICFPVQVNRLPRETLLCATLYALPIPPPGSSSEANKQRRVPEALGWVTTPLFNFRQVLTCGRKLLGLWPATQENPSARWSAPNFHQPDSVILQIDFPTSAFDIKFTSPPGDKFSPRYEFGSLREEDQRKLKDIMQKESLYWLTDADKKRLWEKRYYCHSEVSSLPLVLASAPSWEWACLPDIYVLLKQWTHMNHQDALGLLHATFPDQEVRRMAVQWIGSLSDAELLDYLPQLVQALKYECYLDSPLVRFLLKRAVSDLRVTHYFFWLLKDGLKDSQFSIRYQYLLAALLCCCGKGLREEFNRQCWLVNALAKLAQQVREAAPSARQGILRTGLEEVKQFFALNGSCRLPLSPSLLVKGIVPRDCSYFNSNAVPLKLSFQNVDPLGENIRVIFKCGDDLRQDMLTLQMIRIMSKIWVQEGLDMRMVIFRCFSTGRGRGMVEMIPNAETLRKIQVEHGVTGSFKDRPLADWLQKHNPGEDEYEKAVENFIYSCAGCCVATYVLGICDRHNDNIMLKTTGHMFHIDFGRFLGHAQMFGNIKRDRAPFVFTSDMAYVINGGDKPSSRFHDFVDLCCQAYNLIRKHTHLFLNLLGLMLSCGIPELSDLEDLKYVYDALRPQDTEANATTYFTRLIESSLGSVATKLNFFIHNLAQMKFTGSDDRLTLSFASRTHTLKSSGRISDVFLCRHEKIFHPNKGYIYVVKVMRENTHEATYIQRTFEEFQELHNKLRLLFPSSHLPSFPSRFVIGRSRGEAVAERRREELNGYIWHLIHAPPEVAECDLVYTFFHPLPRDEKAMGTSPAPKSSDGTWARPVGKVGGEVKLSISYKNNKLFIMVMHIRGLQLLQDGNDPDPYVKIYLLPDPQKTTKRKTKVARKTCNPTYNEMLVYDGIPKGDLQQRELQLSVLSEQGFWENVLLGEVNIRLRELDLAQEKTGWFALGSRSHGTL

ANKK1 (human) = ANKK1 (human) (UniProt Q8NFD2)
Sequence of ANKK1 (human) (Q8NFD2 whole entry, looked up): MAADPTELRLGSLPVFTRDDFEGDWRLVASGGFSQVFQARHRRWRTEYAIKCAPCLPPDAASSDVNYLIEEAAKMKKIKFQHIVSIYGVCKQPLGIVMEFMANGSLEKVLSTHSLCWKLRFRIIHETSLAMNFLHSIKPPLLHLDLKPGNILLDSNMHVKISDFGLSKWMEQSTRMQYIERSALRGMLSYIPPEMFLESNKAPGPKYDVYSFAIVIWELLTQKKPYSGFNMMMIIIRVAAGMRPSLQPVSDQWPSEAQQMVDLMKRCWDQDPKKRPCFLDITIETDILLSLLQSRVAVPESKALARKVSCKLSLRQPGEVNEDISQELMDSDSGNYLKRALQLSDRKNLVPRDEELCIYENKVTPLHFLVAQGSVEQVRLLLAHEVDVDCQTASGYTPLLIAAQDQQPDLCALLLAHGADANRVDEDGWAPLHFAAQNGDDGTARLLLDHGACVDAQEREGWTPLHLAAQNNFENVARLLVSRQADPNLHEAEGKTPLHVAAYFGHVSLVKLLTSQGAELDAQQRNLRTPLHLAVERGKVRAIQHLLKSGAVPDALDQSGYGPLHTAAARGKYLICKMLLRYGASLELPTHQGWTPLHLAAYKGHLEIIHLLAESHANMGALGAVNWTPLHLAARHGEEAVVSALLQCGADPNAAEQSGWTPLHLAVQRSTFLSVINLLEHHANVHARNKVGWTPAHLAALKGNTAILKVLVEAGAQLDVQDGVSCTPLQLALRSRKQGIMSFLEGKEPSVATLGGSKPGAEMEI

CDK4 CCND3 (human) = CDK4 CCND3 (human) (UniProt P11802+P30281)
RPS6KA3 KD1 (human) = RPS6KA3 KD1 (human) (UniProt P51812)
PAK3 (human) = PAK3 (human) (UniProt O75914)
PIP4K2B (human) = PIP4K2B (human) (UniProt P78356)
Sequence of PIP4K2B (human) (P78356 whole entry, looked up): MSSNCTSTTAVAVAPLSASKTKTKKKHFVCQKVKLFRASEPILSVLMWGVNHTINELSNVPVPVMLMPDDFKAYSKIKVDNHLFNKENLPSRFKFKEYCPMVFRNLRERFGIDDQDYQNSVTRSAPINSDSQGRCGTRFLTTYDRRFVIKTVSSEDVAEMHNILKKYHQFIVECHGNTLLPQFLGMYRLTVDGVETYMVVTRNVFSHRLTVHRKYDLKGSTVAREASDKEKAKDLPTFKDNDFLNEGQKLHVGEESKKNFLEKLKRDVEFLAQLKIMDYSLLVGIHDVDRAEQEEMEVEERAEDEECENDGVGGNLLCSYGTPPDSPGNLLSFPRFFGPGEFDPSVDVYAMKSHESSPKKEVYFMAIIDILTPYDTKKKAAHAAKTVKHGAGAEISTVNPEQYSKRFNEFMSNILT

CDK17 (human) = CDK17 (human) (UniProt Q00537)
MAP4K4 (human) = MAP4K4 (human) (UniProt O95819)
CDKL1 (human) = CDKL1 (human) (UniProt Q00532)
Sequence of CDKL1 (human) (Q00532 whole entry, looked up): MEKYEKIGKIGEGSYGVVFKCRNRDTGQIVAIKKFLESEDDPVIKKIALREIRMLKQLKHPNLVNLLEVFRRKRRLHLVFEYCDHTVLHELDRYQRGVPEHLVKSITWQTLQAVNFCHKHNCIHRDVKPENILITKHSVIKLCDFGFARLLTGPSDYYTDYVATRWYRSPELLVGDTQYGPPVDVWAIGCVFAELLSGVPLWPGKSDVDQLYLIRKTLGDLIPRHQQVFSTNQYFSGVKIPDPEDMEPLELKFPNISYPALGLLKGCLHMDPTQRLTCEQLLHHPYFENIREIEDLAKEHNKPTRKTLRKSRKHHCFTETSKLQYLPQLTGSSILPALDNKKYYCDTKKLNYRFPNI

BRSK2 (human) = BRSK2 (human) (UniProt Q8IWQ3)
KDR (human) = KDR (human) (UniProt P35968)
DYRK1A (human) = DYRK1A (human) (UniProt Q13627)
NEK9 (human) = NEK9 (human) (UniProt Q8TD19)
PRKCQ (human) = PRKCQ (human) (UniProt Q04759)
Sequence of PRKCQ (human) (Q04759 whole entry, looked up): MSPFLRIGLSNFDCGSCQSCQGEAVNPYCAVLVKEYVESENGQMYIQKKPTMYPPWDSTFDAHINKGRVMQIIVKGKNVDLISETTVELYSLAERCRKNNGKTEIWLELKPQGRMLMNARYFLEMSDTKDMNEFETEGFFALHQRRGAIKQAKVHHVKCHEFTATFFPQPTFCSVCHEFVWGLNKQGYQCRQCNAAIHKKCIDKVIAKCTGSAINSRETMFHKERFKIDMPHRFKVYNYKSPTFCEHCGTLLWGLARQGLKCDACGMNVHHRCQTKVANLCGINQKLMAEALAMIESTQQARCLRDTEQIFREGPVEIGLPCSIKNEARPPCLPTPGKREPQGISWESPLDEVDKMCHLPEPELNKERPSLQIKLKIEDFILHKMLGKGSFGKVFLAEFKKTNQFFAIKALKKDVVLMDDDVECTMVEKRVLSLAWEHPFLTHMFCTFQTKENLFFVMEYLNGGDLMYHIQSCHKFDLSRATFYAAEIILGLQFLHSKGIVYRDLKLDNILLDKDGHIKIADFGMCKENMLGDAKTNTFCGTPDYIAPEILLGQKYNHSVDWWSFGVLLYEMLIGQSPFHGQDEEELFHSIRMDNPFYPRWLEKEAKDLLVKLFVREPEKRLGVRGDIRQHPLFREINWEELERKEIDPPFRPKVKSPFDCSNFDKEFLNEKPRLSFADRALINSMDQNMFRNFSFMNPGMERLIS

RPS6KA2 KD1 (human) = RPS6KA2 KD1 (human) (UniProt Q15349)
TAOK1 (human) = TAOK1 (human) (UniProt Q7L7X3)
NEK2 (human) = NEK2 (human) (UniProt P51955)
RPS6KA4 KD1 (human) = RPS6KA4 KD1 (human) (UniProt O75676)
RIOK2 (human) = RIOK2 (human) (UniProt Q9BVS4)
CASK (human) = CASK (human) (UniProt O14936)
MAP3K10 (human) = MAP3K10 (human) (UniProt Q02779)
PLK3 (human) = PLK3 (human) (UniProt Q9H4B4)
RPS6KA5 KD1 (human) = RPS6KA5 KD1 (human) (UniProt O75582)
Sequence of RPS6KA5 KD1 (human) (O75582 whole entry, looked up): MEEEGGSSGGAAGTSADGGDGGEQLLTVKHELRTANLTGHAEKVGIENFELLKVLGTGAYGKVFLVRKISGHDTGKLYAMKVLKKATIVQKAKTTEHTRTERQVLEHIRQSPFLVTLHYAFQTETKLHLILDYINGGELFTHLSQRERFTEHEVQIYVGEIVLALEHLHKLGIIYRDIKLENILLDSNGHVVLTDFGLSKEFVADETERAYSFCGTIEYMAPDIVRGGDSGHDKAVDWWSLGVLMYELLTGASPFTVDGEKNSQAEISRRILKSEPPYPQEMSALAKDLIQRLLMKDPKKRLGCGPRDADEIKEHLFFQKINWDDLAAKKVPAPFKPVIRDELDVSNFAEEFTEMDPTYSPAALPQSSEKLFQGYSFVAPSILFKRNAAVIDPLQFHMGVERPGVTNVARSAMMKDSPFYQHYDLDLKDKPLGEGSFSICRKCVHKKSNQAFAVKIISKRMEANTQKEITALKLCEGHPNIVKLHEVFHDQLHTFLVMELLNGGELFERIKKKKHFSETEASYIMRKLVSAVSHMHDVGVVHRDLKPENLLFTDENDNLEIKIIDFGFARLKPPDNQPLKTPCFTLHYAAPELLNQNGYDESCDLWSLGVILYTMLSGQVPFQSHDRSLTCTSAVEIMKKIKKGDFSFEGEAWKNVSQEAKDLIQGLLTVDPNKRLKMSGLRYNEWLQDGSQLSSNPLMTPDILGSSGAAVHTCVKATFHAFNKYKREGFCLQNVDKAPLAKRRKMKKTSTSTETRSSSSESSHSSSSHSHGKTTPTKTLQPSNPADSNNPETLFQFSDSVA

STK4 (human) = STK4 (human) (UniProt Q13043)
CSNK1G1 (human) = CSNK1G1 (human) (UniProt Q9HCP0)
PIK3CA (human) = PIK3CA (human) (UniProt P42336)
CDC42BPG (human) = CDC42BPG (human) (UniProt Q6DT37)
AKT2 (human) = AKT2 (human) (UniProt P31751)
NTRK2 (human) = NTRK2 (human) (UniProt Q16620)
DMPK (human) = DMPK (human) (UniProt Q09013)
CAMK2G (human) = CAMK2G (human) (UniProt Q13555)

Sequence of NEK7 (human) (Q8TDX7 whole entry, looked up): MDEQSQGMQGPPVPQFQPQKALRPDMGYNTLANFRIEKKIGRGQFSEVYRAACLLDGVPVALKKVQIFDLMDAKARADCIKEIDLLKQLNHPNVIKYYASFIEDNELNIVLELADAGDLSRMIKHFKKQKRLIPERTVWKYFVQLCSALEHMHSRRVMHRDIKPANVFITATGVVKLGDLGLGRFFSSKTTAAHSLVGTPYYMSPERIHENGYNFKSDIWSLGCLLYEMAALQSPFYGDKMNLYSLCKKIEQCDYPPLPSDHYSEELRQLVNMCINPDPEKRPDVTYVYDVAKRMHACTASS

Structure (SMILES): COc1ccc(N(C(=O)Oc2c(C)cccc2C)c2ccnc(Nc3ccc(N4CCN(C)CC4)cc3)n2)c(OC)c1
- kinase still bound, per cent of control (PTK6 (human)): 0%
- kinase still bound, per cent of control (EPHA5 (human)): 0.15%
- kinase still bound, per cent of control (VRK2 (human)): 100%
- kinase still bound, per cent of control (DAPK1 (human)): 73%
- kinase still bound, per cent of control (NEK7 (human)): 80%
- kinase still bound, per cent of control (MELK (human)): 46%
- kinase still bound, per cent of control (LATS1 (human)): 78%
- kinase still bound, per cent of control (CAMKK2 (human)): 56%
- kinase still bound, per cent of control (ITK (human)): 100%
- kinase still bound, per cent of control (PIK3C2B (human)): 11%
- kinase still bound, per cent of control (ANKK1 (human)): 100%
- kinase still bound, per cent of control (CDK4 CCND3 (human)): 26%
- kinase still bound, per cent of control (RPS6KA3 KD1 (human)): 37%
- kinase still bound, per cent of control (PAK3 (human)): 4%
- kinase still bound, per cent of control (PIP4K2B (human)): 5.4%
- kinase still bound, per cent of control (CDK17 (human)): 80%
- kinase still bound, per cent of control (MAP4K4 (human)): 3.7%
- kinase still bound, per cent of control (CDKL1 (human)): 100%
- kinase still bound, per cent of control (BRSK2 (human)): 81%
- kinase still bound, per cent of control (KDR (human)): 15%
- kinase still bound, per cent of control (DYRK1A (human)): 75%
- kinase still bound, per cent of control (NEK9 (human)): 100%
- kinase still bound, per cent of control (PRKCQ (human)): 21%
- kinase still bound, per cent of control (RPS6KA2 KD1 (human)): 27%
- kinase still bound, per cent of control (TAOK1 (human)): 11%
- kinase still bound, per cent of control (NEK2 (human)): 100%
- kinase still bound, per cent of control (RPS6KA4 KD1 (human)): 100%
- kinase still bound, per cent of control (RIOK2 (human)): 83%
- kinase still bound, per cent of control (CASK (human)): 90%
- kinase still bound, per cent of control (MAP3K10 (human)): 19%
- kinase still bound, per cent of control (PLK3 (human)): 100%
- kinase still bound, per cent of control (RPS6KA5 KD1 (human)): 100%
- kinase still bound, per cent of control (STK4 (human)): 42%
- kinase still bound, per cent of control (CSNK1G1 (human)): 95%
- kinase still bound, per cent of control (PIK3CA (human)): 100%
- kinase still bound, per cent of control (CDC42BPG (human)): 0.45%
- kinase still bound, per cent of control (AKT2 (human)): 100%
- kinase still bound, per cent of control (NTRK2 (human)): 82%
- kinase still bound, per cent of control (DMPK (human)): 0.05%
- kinase still bound, per cent of control (CAMK2G (human)): 100%

Structure (SMILES): CN(C)C/C=C/C(=O)Nc1ccc(C(=O)Nc2cccc(Nc3nccc(-c4cccnc4)n3)c2)cc1
- kinase still bound, per cent of control (PTK6 (human)): 100%
- kinase still bound, per cent of control (EPHA5 (human)): 97%
- kinase still bound, per cent of control (VRK2 (human)): 90%
- kinase still bound, per cent of control (DAPK1 (human)): 58%
- kinase still bound, per cent of control (NEK7 (human)): 9.8%
- kinase still bound, per cent of control (MELK (human)): 58%
- kinase still bound, per cent of control (LATS1 (human)): 100%
- kinase still bound, per cent of control (CAMKK2 (human)): 16%
- kinase still bound, per cent of control (ITK (human)): 100%
- kinase still bound, per cent of control (PIK3C2B (human)): 100%
- kinase still bound, per cent of control (ANKK1 (human)): 8.1%
- kinase still bound, per cent of control (CDK4 CCND3 (human)): 100%
- kinase still bound, per cent of control (RPS6KA3 KD1 (human)): 62%
- kinase still bound, per cent of control (PAK3 (human)): 100%
- kinase still bound, per cent of control (PIP4K2B (human)): 56%
- kinase still bound, per cent of control (CDK17 (human)): 92%
- kinase still bound, per cent of control (MAP4K4 (human)): 18%
- kinase still bound, per cent of control (CDKL1 (human)): 41%
- kinase still bound, per cent of control (BRSK2 (human)): 88%
- kinase still bound, per cent of control (KDR (human)): 36%
- kinase still bound, per cent of control (DYRK1A (human)): 28%
- kinase still bound, per cent of control (NEK9 (human)): 22%
- kinase still bound, per cent of control (PRKCQ (human)): 68%
- kinase still bound, per cent of control (RPS6KA2 KD1 (human)): 83%
- kinase still bound, per cent of control (TAOK1 (human)): 28%
- kinase still bound, per cent of control (NEK2 (human)): 1.1%
- kinase still bound, per cent of control (RPS6KA4 KD1 (human)): 100%
- kinase still bound, per cent of control (RIOK2 (human)): 9.6%
- kinase still bound, per cent of control (CASK (human)): 98%
- kinase still bound, per cent of control (MAP3K10 (human)): 94%
- kinase still bound, per cent of control (PLK3 (human)): 35%
- kinase still bound, per cent of control (RPS6KA5 KD1 (human)): 100%
- kinase still bound, per cent of control (STK4 (human)): 100%
- kinase still bound, per cent of control (CSNK1G1 (human)): 0.5%
- kinase still bound, per cent of control (PIK3CA (human)): 100%
- kinase still bound, per cent of control (CDC42BPG (human)): 76%
- kinase still bound, per cent of control (AKT2 (human)): 100%
- kinase still bound, per cent of control (NTRK2 (human)): 69%
- kinase still bound, per cent of control (DMPK (human)): 64%
- kinase still bound, per cent of control (CAMK2G (human)): 76%
